Measured values from PubChem BioAssay (NCI).
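A five-concentration, 48-hour dose response in 96-well plates underlies each endpoint, interpolated linearly between surrounding concentrations. The concentration for 50% growth inhibition is given as GI50. TGI marks complete inhibition of growth.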

Tests used:
Experiment in all cases: NCI anticancer screen, dose series, 48 h
[1] = system: 786-0 renal
[2] = system: A498 renal
[3] = system: A549 NSCLC
[4] = system: ACHN renal
[5] = system: BT-549 breast
[6] = system: CAKI-1 renal
[7] = system: CCRF-CEM leukemia
[8] = system: COLO 205 colon
[9] = system: DU-145 prostate
[10] = system: EKVX NSCLC
[11] = system: HCC-2998 colon
[12] = system: HCT-116 colon
[13] = system: HCT-15 colon
[14] = system: HOP-62 NSCLC
[15] = system: HOP-92 NSCLC
[16] = system: HS 578T breast
[17] = system: HT29 colon
[18] = system: IGROV1 ovarian
[19] = system: KM12 colon
[20] = system: LOX IMVI melanoma
[21] = system: M14 melanoma
[22] = system: MALME-3M melanoma
[23] = system: MCF7 breast
[24] = system: MDA-MB-231 breast
[25] = system: MDA-MB-435
[26] = system: MOLT-4 leukemia
[27] = system: NCI-H226 lung
[28] = system: NCI-H23 lung
[29] = system: NCI-H460 lung
[30] = system: NCI-H522 lung
[31] = system: NCI/ADR-RES ovarian
[32] = system: OVCAR-3 ovarian
[33] = system: OVCAR-4 ovarian
[34] = system: OVCAR-5 ovarian
[35] = system: OVCAR-8 ovarian
[36] = system: PC-3 prostate
[37] = system: RPMI-8226 leukemia
[38] = system: RXF 393 renal
[39] = system: SF-268 CNS
[40] = system: SF-295 CNS
[41] = system: SF-539 CNS
[42] = system: SK-MEL-2 melanoma
[43] = system: SK-MEL-28 melanoma
[44] = system: SK-MEL-5 melanoma
[45] = system: SK-OV-3 ovarian
[46] = system: SN12C renal
[47] = system: SNB-19 CNS
[48] = system: SNB-75 CNS
[49] = system: SR leukemia
[50] = system: SW-620 colon
[51] = system: T-47D breast
[52] = system: TK-10 renal
[53] = system: U251 CNS
[54] = system: UACC-257 melanoma
[55] = system: UACC-62 melanoma
[56] = system: UO-31 renal

Oc1ccc(-c2cn3ccsc3n2)cc1O
GI50 [1]: 36.6 µM | TGI [1]: > 100 µM | GI50 [2]: 25.9 µM | TGI [2]: 83.6 µM | GI50 [3]: 72.8 µM | TGI [3]: > 100 µM | GI50 [4]: 22 µM | TGI [4]: 56.3 µM | GI50 [5]: 10.2 µM | TGI [5]: 30.7 µM | GI50 [6]: 26.3 µM | TGI [6]: > 100 µM | GI50 [7]: 4.41 µM | TGI [7]: 29.6 µM | GI50 [8]: 29.9 µM | TGI [8]: > 100 µM | GI50 [9]: 28.7 µM | TGI [9]: > 100 µM | GI50 [10]: 16.7 µM | TGI [10]: 38.9 µM | GI50 [11]: 78 µM | TGI [11]: > 100 µM | GI50 [12]: 18.1 µM | TGI [12]: 37.8 µM | GI50 [13]: 37.8 µM | TGI [13]: > 100 µM | GI50 [14]: 43.2 µM | TGI [14]: > 100 µM | GI50 [15]: 23 µM | TGI [15]: 78.5 µM | GI50 [16]: 0.203 µM | TGI [16]: 22.4 µM | GI50 [17]: 29.5 µM | TGI [17]: > 100 µM | GI50 [18]: 21.3 µM | TGI [18]: > 100 µM | GI50 [19]: 27.7 µM | TGI [19]: > 100 µM | GI50 [20]: 18.1 µM | TGI [20]: 41.7 µM | GI50 [21]: 26.1 µM | TGI [21]: 75.3 µM | GI50 [22]: 30.8 µM | TGI [22]: 84.4 µM | GI50 [23]: 18.3 µM | TGI [23]: > 100 µM | GI50 [24]: 17.6 µM | TGI [24]: 44.2 µM | GI50 [25]: 22.1 µM | TGI [25]: 47.8 µM | GI50 [26]: 11 µM | TGI [26]: 55.4 µM | GI50 [27]: 20.9 µM | TGI [27]: 60.2 µM | GI50 [28]: 46.3 µM | TGI [28]: > 100 µM | GI50 [29]: 45.8 µM | TGI [29]: > 100 µM | GI50 [30]: 11.5 µM | TGI [30]: 33.2 µM | GI50 [31]: > 100 µM | TGI [31]: > 100 µM | GI50 [32]: 15.6 µM | TGI [32]: 46.4 µM | GI50 [33]: 32.7 µM | TGI [33]: > 100 µM | GI50 [34]: 38.9 µM | TGI [34]: > 100 µM | GI50 [35]: 35.8 µM | TGI [35]: > 100 µM | GI50 [36]: 21.7 µM | TGI [36]: > 100 µM | GI50 [37]: 12.1 µM | TGI [37]: 65.4 µM | GI50 [38]: 78 µM | TGI [38]: > 100 µM | GI50 [39]: 27.8 µM | TGI [39]: > 100 µM | GI50 [40]: 69.6 µM | TGI [40]: > 100 µM | GI50 [41]: 19.7 µM | TGI [41]: 79.6 µM | GI50 [42]: 35.1 µM | TGI [42]: > 100 µM | GI50 [43]: 32.9 µM | TGI [43]: > 100 µM | GI50 [44]: 10.5 µM | TGI [44]: 26.7 µM | GI50 [45]: > 100 µM | TGI [45]: > 100 µM | GI50 [46]: 18.5 µM | TGI [46]: 37.8 µM | GI50 [47]: 49.9 µM | TGI [47]: > 100 µM | GI50 [48]: 55.1 µM | TGI [48]: > 100 µM | GI50 [49]: 10.6 µM | TGI [49]: 41.4 µM | GI50 [50]: 11.5 µM | TGI [50]: 70.5 µM | GI50 [51]: 32.4 µM | TGI [51]: > 100 µM | GI50 [52]: 63.1 µM | TGI [52]: > 100 µM | GI50 [53]: 21.5 µM | TGI [53]: 46.7 µM | GI50 [54]: > 100 µM | TGI [54]: > 100 µM | GI50 [55]: 19.6 µM | TGI [55]: 43.9 µM | GI50 [56]: 16 µM | TGI [56]: > 100 µM
